Legend:
Assay in all cases: relative viability (nuclei count vs DMSO), 5 days (fraction); higher = more cells survive
[1] = compound: O=C(NC1CCNCC1)c1n[nH]cc1NC(=O)c1c(Cl)cccc1Cl [AT-7519] + O=C(CCCCCCC(=O)Nc1ccccc1)NO [Vorinostat] (partner 1 µM)
Outline: (§1)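 After 5 days of treatment, lung cancer cells in 1536-well plates were fixed and stained in a single step (final 0.05% Triton X-100, 1% formaldehyde, 1 ug/ml Hoechst) and their nuclei counted on 4× images. Treatment had been applied by pin tool the day after seeding as one drug alone or as a fixed anchor-drug dose with five library-drug doses (not always all listed) in √10 steps. Relative viability is the nuclei count of treated wells divided by that of vehicle wells, and values are medians of duplicate plates.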

[2] = compound: O=C(NC1CCNCC1)c1n[nH]cc1NC(=O)c1c(Cl)cccc1Cl [AT-7519] + COc1cccc2cc(-c3nc([C@H]4CC[C@H](C(=O)O)CC4)n4ncnc(N)c34)[nH]c12 [OSI-027] (partner 0.5 µM)
Outline: as §1

[3] = compound: O=C(NC1CCNCC1)c1n[nH]cc1NC(=O)c1c(Cl)cccc1Cl [AT-7519] + C[C@]1(O)C[C@@H](c2nc(-c3ccc4ccc(-c5ccccc5)nc4c3)c3c(N)nccn32)C1 [Linsitinib] (partner 1 µM)
Outline: as §1

[4] = compound: O=C(NC1CCNCC1)c1n[nH]cc1NC(=O)c1c(Cl)cccc1Cl [AT-7519] + Cc1nc(NC(=O)N2CCC[C@H]2C(N)=O)sc1-c1ccnc(C(C)(C)C(F)(F)F)c1 [Alpelisib] (partner 2 µM)
Outline: as §1

HCC-44
relative viability ([1]; first compound 0.01 µM): 1.16
relative viability ([1]; first compound 0.03162 µM): 1.08
relative viability ([1]; first compound 0.3162 µM): 1.11
relative viability ([1]; first compound 1 µM): 1.08
relative viability ([2]; first compound 0.01 µM): 0.516
relative viability ([2]; first compound 0.03162 µM): 0.493
relative viability ([2]; first compound 0.3162 µM): 0.28
relative viability ([2]; first compound 1 µM): 0.317
relative viability ([3]; first compound 0.01 µM): 0.677
relative viability ([3]; first compound 0.03162 µM): 0.62
relative viability ([3]; first compound 0.3162 µM): 0.678
relative viability ([3]; first compound 1 µM): 0.543
relative viability ([4]; first compound 0.01 µM): 0.835
relative viability ([4]; first compound 0.03162 µM): 0.835
relative viability ([4]; first compound 0.3162 µM): 0.769
relative viability ([4]; first compound 1 µM): 0.572

NCI-H596
relative viability ([1]; first compound 0.01 µM): 0.584
relative viability ([1]; first compound 0.03162 µM): 0.611
relative viability ([1]; first compound 0.3162 µM): 0.471
relative viability ([1]; first compound 1 µM): 0.697
relative viability ([2]; first compound 0.01 µM): 0.723
relative viability ([2]; first compound 0.03162 µM): 0.628
relative viability ([2]; first compound 0.3162 µM): 0.644
relative viability ([2]; first compound 1 µM): 0.754
relative viability ([3]; first compound 0.01 µM): 1.04
relative viability ([3]; first compound 0.03162 µM): 0.91
relative viability ([3]; first compound 0.3162 µM): 0.973
relative viability ([3]; first compound 1 µM): 0.897
relative viability ([4]; first compound 0.01 µM): 0.485
relative viability ([4]; first compound 0.03162 µM): 0.548
relative viability ([4]; first compound 0.3162 µM): 0.191
relative viability ([4]; first compound 1 µM): 0.41

H3255
relative viability ([1]; first compound 0.01 µM): 0.794
relative viability ([1]; first compound 0.03162 µM): 0.816
relative viability ([1]; first compound 0.3162 µM): 0.905
relative viability ([1]; first compound 1 µM): 0.787
relative viability ([2]; first compound 0.01 µM): 0.572
relative viability ([2]; first compound 0.03162 µM): 0.517
relative viability ([2]; first compound 0.3162 µM): 0.591
relative viability ([2]; first compound 1 µM): 0.508
relative viability ([3]; first compound 0.01 µM): 0.964
relative viability ([3]; first compound 0.03162 µM): 0.888
relative viability ([3]; first compound 0.3162 µM): 0.909
relative viability ([3]; first compound 1 µM): 0.788
relative viability ([4]; first compound 0.01 µM): 0.712
relative viability ([4]; first compound 0.03162 µM): 0.678
relative viability ([4]; first compound 0.3162 µM): 0.833
relative viability ([4]; first compound 1 µM): 0.519

NCI-H647
relative viability ([1]; first compound 0.01 µM): 0.568
relative viability ([1]; first compound 0.03162 µM): 0.369
relative viability ([1]; first compound 0.3162 µM): 0.562
relative viability ([1]; first compound 1 µM): 0.244
relative viability ([2]; first compound 0.01 µM): 0.538
relative viability ([2]; first compound 0.03162 µM): 0.675
relative viability ([2]; first compound 0.3162 µM): 0.676
relative viability ([2]; first compound 1 µM): 0.471
relative viability ([3]; first compound 0.01 µM): 0.982
relative viability ([3]; first compound 0.03162 µM): 1.13
relative viability ([3]; first compound 0.3162 µM): 1.38
relative viability ([3]; first compound 1 µM): 0.48
relative viability ([4]; first compound 0.01 µM): 1.13
relative viability ([4]; first compound 0.03162 µM): 1.07
relative viability ([4]; first compound 0.3162 µM): 0.967
relative viability ([4]; first compound 1 µM): 0.53

NCI-H2023
relative viability ([1]; first compound 0.01 µM): 0.759
relative viability ([1]; first compound 0.03162 µM): 0.503
relative viability ([1]; first compound 0.3162 µM): 0.46
relative viability ([1]; first compound 1 µM): 0.269
relative viability ([2]; first compound 0.01 µM): 0.435
relative viability ([2]; first compound 0.03162 µM): 0.347
relative viability ([2]; first compound 0.3162 µM): 0.351
relative viability ([2]; first compound 1 µM): 0.203
relative viability ([3]; first compound 0.01 µM): 0.731
relative viability ([3]; first compound 0.03162 µM): 0.699
relative viability ([3]; first compound 0.3162 µM): 0.626
relative viability ([3]; first compound 1 µM): 0.329
relative viability ([4]; first compound 0.01 µM): 0.648
relative viability ([4]; first compound 0.03162 µM): 0.711
relative viability ([4]; first compound 0.3162 µM): 0.498
relative viability ([4]; first compound 1 µM): 0.3

NCI-H23
relative viability ([1]; first compound 0.01 µM): 0.598
relative viability ([1]; first compound 0.03162 µM): 0.619
relative viability ([1]; first compound 0.3162 µM): 0.513
relative viability ([1]; first compound 1 µM): 0.4
relative viability ([2]; first compound 0.01 µM): 0.475
relative viability ([2]; first compound 0.03162 µM): 0.521
relative viability ([2]; first compound 0.3162 µM): 0.664
relative viability ([2]; first compound 1 µM): 0.396
relative viability ([3]; first compound 0.01 µM): 0.591
relative viability ([3]; first compound 0.03162 µM): 0.619
relative viability ([3]; first compound 0.3162 µM): 0.523
relative viability ([3]; first compound 1 µM): 0.255
relative viability ([4]; first compound 0.01 µM): 0.561
relative viability ([4]; first compound 0.03162 µM): 0.785
relative viability ([4]; first compound 0.3162 µM): 0.68
relative viability ([4]; first compound 1 µM): 0.45

NCI-H1944
relative viability ([1]; first compound 0.01 µM): 0.547
relative viability ([1]; first compound 0.03162 µM): 0.528
relative viability ([1]; first compound 0.3162 µM): 0.534
relative viability ([1]; first compound 1 µM): 0.436
relative viability ([2]; first compound 0.01 µM): 0.436
relative viability ([2]; first compound 0.03162 µM): 0.402
relative viability ([2]; first compound 0.3162 µM): 0.367
relative viability ([2]; first compound 1 µM): 0.328
relative viability ([3]; first compound 0.01 µM): 1.16
relative viability ([3]; first compound 0.03162 µM): 1.02
relative viability ([3]; first compound 0.3162 µM): 1.12
relative viability ([3]; first compound 1 µM): 1.13
relative viability ([4]; first compound 0.01 µM): 0.86
relative viability ([4]; first compound 0.03162 µM): 0.787
relative viability ([4]; first compound 0.3162 µM): 0.799
relative viability ([4]; first compound 1 µM): 0.74

NCI-H1793
relative viability ([1]; first compound 0.01 µM): 0.514
relative viability ([1]; first compound 0.03162 µM): 0.849
relative viability ([1]; first compound 0.3162 µM): 0.615
relative viability ([1]; first compound 1 µM): 0.767
relative viability ([2]; first compound 0.01 µM): 0.229
relative viability ([2]; first compound 0.03162 µM): 0.254
relative viability ([2]; first compound 0.3162 µM): 0.285
relative viability ([2]; first compound 1 µM): 0.247
relative viability ([3]; first compound 0.01 µM): 1.06
relative viability ([3]; first compound 0.03162 µM): 0.945
relative viability ([3]; first compound 0.3162 µM): 0.74
relative viability ([3]; first compound 1 µM): 0.684
relative viability ([4]; first compound 0.01 µM): 0.574
relative viability ([4]; first compound 0.03162 µM): 0.632
relative viability ([4]; first compound 0.3162 µM): 0.907
relative viability ([4]; first compound 1 µM): 0.774
